Measured values from article PMC5566834 (2017).

What was measured:
[1] = system: Rd 13 Scrambled (S) (DNA, aptamer) GCTGTGTGCGTGAGTGGAGTGCGCGCGAGAGTGAGTGCGGTGAGAGATTCGGTGTGCGTGTCGTGATGAATGCGACCGG; assay: circular dichroism; details: 0.2 mM Mg2+; 20 mM Tris pH 7.4; 10 μM aptamer, 100 μM posaconazole; no CD change
[2] = system: Rd 13 (DNA, aptamer) CGGGGGGAGGCGGAGGGAGGACTGGGGCTTCATTGACGTTCTTCACAGTAGGGGTAAGGGCTTAGGTGGTTGGTGCCTG; assay: competitive fluorescence anisotropy; details: 140 mM Na+, 2 mM K+, 5 mM Mg2+, 2 mM Ca2+, 20 mM Tris pH 7.4, PosBD displaced, 1,000 pmol drug in 125 μl
[3] = system: amino-Rd 13 (DNA, aptamer) CGGGGGGAGGCGGAGGGAGGACTGGGGCTTCATTGACGTTCTTCACAGTAGGGGTAAGGGCTTAGGTGGTTGGTGCCTG; assay: graphene field effect transistor, Dirac voltage shift; details: 140 mM Na+, 2 mM K+, 5 mM Mg2+, 2 mM Ca2+; SELEX buffer (20 mM Tris pH 7.4, 0.05% Tween); Langmuir-Hill fit; also printed as 1.8 ± 0.5 μg/ml

| binding [1] | binding ([2]; greatest displacement) | dissociation constant [3] | binding ([2]; less than posaconazole) | Compound |
| --- | --- | --- | --- | --- |
| no | yes | 2.6 ± 0.7 µM |  | CC[C@@H]([C@H](C)O)n1ncn(-c2ccc(N3CCN(c4ccc(OC[C@@H]5CO[C@@](Cn6cncn6)(c6ccc(F)cc6F)C5)cc4)CC3)cc2)c1=O |
|  |  |  | weak | CCC(C)n1ncn(-c2ccc(N3CCN(c4ccc(OCC5COC(Cn6cncn6)(c6ccc(Cl)cc6Cl)O5)cc4)CC3)cc2)c1=O (stereo not shown) |
